Data on 43 compounds can be found in patent US20260167656A1, “PHOSPHORAMIDATE COMPOUNDS AND USES THEREOF” (ALLORION THERAPEUTICS INC, priority 2022, published 2026).

In experiment [1] the test system is non-small cell lung cancer cell line H460. The experiment is described as follows: In vitro human cancer cell line cytotoxicity (proliferation) assay in H460, CellTiter-Glo, 72 hours. Particulars: DMSO condition (no AKR1C3 inhibitor), read-out: CTG H460: Avg IC50 (nM) [Assay Condition: DMSO]. The format is cell-based. In outline:
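H460 cells were seeded at 3×10^3 per well and grown 24 h at 37 °C, 5% CO2 before compound addition from 10 mM DMSO stocks. After 72 h further incubation, viability was measured by CellTiter-Glo, and IC50 values in nM were derived from the proliferation data.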
(In general: Cellular ATP, detected with luciferase, serves as a proxy for viable cell number.)

Experiment [2] has the same test system. The experiment can be described thus: H460 proliferation assay in the presence of 3 uM ASP9521 (AKR1C3 specific inhibitor). The format is cell-based, human. Particulars: H460 cells, CellTiter-Glo, 72 hours, in the presence of 3 uM ASP9521 added 4 hours prior to compounds; read-out: CTG H460: Avg IC50 (nM) [Assay Condition: ASP9521]. The essentials: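 H460 cells pre-incubated 24 h, then exposed to compounds for 72 h at 37 °C, 5% CO2. Viability read by CellTiter-Glo. ASP9521 (3 uM, AKR1C3 inhibitor) added 4 h before compounds.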

The mark [3] stands for this setting: Homo sapiens, NCI-H460, 72 h, H460 cells.
[4] abbreviates: Homo sapiens, NCI-H460, H460 cells.

The term IC50 denotes the midpoint of a concentration-inhibition curve.

Take `CC(OP(=O)(N1CC1)N1CC1)c1cc2cc(Oc3cccc(-c4ccccn4)c3)c([N+](=O)[O-])cc2o1` (centres unmarked) [Example 543]: the IC50 in experiment [1] (H460 cells) is less than 10 nM; in experiment [2], 2230 nM.
Turning to `COc1ccc(Oc2c([N+](=O)[O-])ccc3c2CC[C@@H]3OP(=O)(N2CC2)N2CC2)cc1C1CC1` [Example 348], the IC50 in experiment [1] (setting [3]) was less than 10 nM; in experiment [2], 827 nM.
Consider `O=C(c1cccc(Oc2c([N+](=O)[O-])ccc3c2CCC3OP(=O)(N2CC2)N2CC2)c1)N1CCOCC1` (single isomer, unassigned) [Example 125], for which the values for the IC50 in experiment [1] (setting [3]) and in experiment [2] were less than 10 nM and 766 nM, respectively.
As for `CN1Cc2ccc(Oc3c([N+](=O)[O-])ccc4c3CCC4OP(=O)(N3CC3)N3CC3)cc2C1=O` (centres unmarked) [Example 23], the figures for the IC50 in experiment [1] (setting [3]) and in experiment [2] were less than 10 nM and 75.9 nM, respectively.
Turning to `O=C(NC1CCC1)c1ccc(Oc2cc3c(cc2[N+](=O)[O-])CCC3OP(=O)(N2CC2)N2CC2)cc1` (centres unmarked) [Example 190], the IC50 in experiment [1] (setting [3]) was less than 10 nM; in experiment [2], 984 nM.
As for `O=[N+]([O-])c1ccc2c(c1Oc1cccc(OC(F)(F)F)c1)CCC2OP(=O)(N1CC1)N1CC1` (centres unmarked) [Example 124], the IC50 in experiment [1] (setting [3]) is less than 10 nM; in experiment [2], 547 nM.
As for `O=C1c2cc(Oc3cc4c(cc3[N+](=O)[O-])CCC4OP(=O)(N3CC3)N3CC3)ccc2CN1C1CC1` (single isomer, unassigned) [Example 171], the 50% inhibitory concentration (IC50) in experiment [1] (H460 cells) is less than 10 nM; in experiment [2] it was 1100 nM.
Take `O=[N+]([O-])c1cc2c(cc1Oc1ccc(-c3ccccc3)nc1)[C@@H](OP(=O)(N1CC1)N1CC1)CC2` [Example 527]: the IC50 was less than 10 nM in experiment [1] (H460 cells) and 1090 nM in experiment [2].
`CNC(=O)c1ccc(Oc2c([N+](=O)[O-])ccc3c2CCC3OP(=O)(N2CC2)N2CC2)cc1` (centres unmarked) [Example 36]: the IC50 in experiment [1] (setting [3]) was 10 to 50 nM; in experiment [2], 527 nM.
For `C[C@H](OP(=O)(N1CC1)N1CC1)c1cc2cc(Oc3cccc(-c4ccccn4)c3)c([N+](=O)[O-])cc2o1` [Example 554], the IC50 is less than 10 nM in experiment [1] (H460 cells) and 6070 nM in experiment [2].
In the case of `O=[N+]([O-])c1cc2c(cc1Oc1ccc(-c3cccnc3)cc1)C(OP(=O)(N1CC1)N1CC1)CC2` (centres unmarked) [Example 515], the IC50 in experiment [1] (H460 cells) is 10 to 50 nM; in experiment [2], 7150 nM.
For the compound `O=[N+]([O-])c1ccc2c(c1Oc1ccc(F)c(-c3ccccc3)c1)CC[C@H]2OP(=O)(N1CC1)N1CC1` [Example 313], the IC50 is less than 10 nM in experiment [1] (setting [3]) and 1260 nM in experiment [2].
Turning to `O=[N+]([O-])c1cc2c(cc1Oc1cccc(-c3ccccc3)c1)C(OP(=O)(N1CC1)N1CC1)CC2` (single isomer, unassigned) [Example 169], the IC50 was less than 10 nM in experiment [1] (H460 cells) and 766 nM in experiment [2].
In the case of `O=C(c1cccc(Oc2c([N+](=O)[O-])ccc3c2CCC3OP(=O)(N2CC2)N2CC2)c1)N1C[C@H]2CC[C@@H](C1)O2` (some centres unmarked) [Example 249], the IC50 was less than 10 nM in experiment [1] (setting [3]) and 1340 nM in experiment [2].
On to `C[C@@H](OP(=O)(N1CC1)N1CC1)c1cc2cc(Oc3cccc(C(=O)N4CCC4)c3)c([N+](=O)[O-])cc2o1` [Example 559], for which the results for the IC50 in experiment [1] (H460 cells) and in experiment [2] were 10 to 50 nM and 7000 nM, respectively.
For `O=C1CCCN1c1cccc(Oc2c([N+](=O)[O-])ccc3c2CCC3OP(=O)(N2CC2)N2CC2)c1` (centres unmarked) [Example 111], the values for the IC50 in experiment [1] (setting [3]) and in experiment [2] were less than 10 nM and 1100 nM, respectively.
In the case of `O=[N+]([O-])c1ccc2c(c1Oc1cncc(C3CC3)c1)CC[C@H]2OP(=O)(N1CC1)N1CC1` [Example 318], the IC50 in experiment [1] (setting [3]) was less than 10 nM; in experiment [2] it was 1070 nM.
Regarding `O=[N+]([O-])c1ccc2c(c1Oc1cccc(OC(F)F)c1)CC[C@H]2OP(=O)(N1CC1)N1CC1` [Example 458], the results for the IC50 in experiment [1] (H460 cells) and in experiment [2] were less than 10 nM and 506 nM, respectively.
With `CC(OP(=O)(N1CC1C)N1CC1C)c1ccc([N+](=O)[O-])c(Oc2cccc(C(=O)N(C)C)c2)c1` (centres unmarked) [Example 205], the IC50 in experiment [1] (setting [3]) is less than 10 nM; in experiment [2], 184 nM.
On to `CC(OP(=O)(N1CC1)N1CC1)c1ccc([N+](=O)[O-])c(Cn2cc(C(=O)N(C)C)ccc2=O)c1` (centres unmarked) [Example 6], for which the half-inhibitory concentration (IC50) is not below 100 nM in experiment [1] (setting [3]) and more than 10000 nM in experiment [2].
On to `[2H]C([2H])([2H])N(C(=O)c1cccc(Oc2cc3cc([C@H](C)OP(=O)(N4CC4)N4CC4)oc3cc2[N+](=O)[O-])c1)C([2H])([2H])[2H]` (single isomer, unassigned) [Example 533], for which the IC50 in experiment [1] (setting [3]) was 10 to 50 nM; in experiment [2] it was 7430 nM.
On to `Cn1nc(F)cc1-c1cccc(Oc2c([N+](=O)[O-])ccc3c2CCC3OP(=O)(N2CC2)N2CC2)c1` (centres unmarked) [Example 374], for which the IC50 was less than 10 nM in experiment [1] (H460 cells) and 468 nM in experiment [2].
As to `O=[N+]([O-])c1ccc2c(c1Oc1ccc(F)c(-c3ccc(F)cc3)c1)CC[C@H]2OP(=O)(N1CC1)N1CC1` [Example 306], the IC50 is less than 10 nM in experiment [1] (setting [4]) and 1990 nM in experiment [2].
With `O=c1ccccn1-c1cccc(Oc2c([N+](=O)[O-])ccc3c2CCC3OP(=O)(N2CC2)N2CC2)c1` (centres unmarked) [Example 81], the values for the IC50 in experiment [1] (H460 cells) and in experiment [2] were less than 10 nM and 829 nM, respectively.
For `O=C(c1cccc(Oc2cc3cc(COP(=O)(N4CC4)N4CC4)oc3cc2[N+](=O)[O-])c1)N1CCC1` [Example 535], the concentration for half-maximal inhibition (IC50) in experiment [1] (setting [3]) is less than 10 nM; in experiment [2], 378 nM.
Turning to `O=C1OCCN1c1cccc(Oc2c([N+](=O)[O-])ccc3c2CCC3OP(=O)(N2CC2)N2CC2)c1` (centres unmarked) [Example 70], the IC50 in experiment [1] (setting [4]) was less than 10 nM; in experiment [2], 380 nM.
Turning to `CC(OP(=O)(N1C[C@@H]1C)N1C[C@@H]1C)c1ccc([N+](=O)[O-])c(Oc2ccc(-c3ccc(F)cn3)c(F)c2)c1` (some centres unmarked) [Example 223], the IC50 in experiment [1] (H460 cells) is less than 10 nM; in experiment [2], 2590 nM.
With `Cc1nsc(-c2cccc(Oc3c([N+](=O)[O-])ccc4c3CC[C@@H]4OP(=O)(N3CC3)N3CC3)c2F)n1` [Example 360], the IC50 in experiment [1] (setting [3]) is less than 10 nM; in experiment [2] it was 391 nM.
The like results for `Cn1ccc2c(F)cc(Oc3c([N+](=O)[O-])ccc4c3CC[C@@H]4OP(=O)(N3CC3)N3CC3)cc21` (single isomer, unassigned) [Example 377] were, in that order, less than 10 nM and 1330 nM.
For the compound `O=[N+]([O-])c1cc2oc(COP(=O)(N3CC3)N3CC3)cc2cc1Oc1cccc(-c2cccnc2)c1` [Example 537], the values for the IC50 in experiment [1] (setting [3]) and in experiment [2] were less than 10 nM and 3710 nM, respectively.
Consider `O=C1c2cc(Oc3cc4c(cc3[N+](=O)[O-])OCCC4OP(=O)(N3CC3)N3CC3)ccc2CN1C1CC1` (single isomer, unassigned) [Example 203], for which the IC50 was less than 10 nM in experiment [1] (setting [3]) and 959 nM in experiment [2].
The like results for `CN(C)C(=O)c1cccc(Oc2cc3c(cc2[N+](=O)[O-])CCC3OP(=O)(N2CC2)N2CC2)c1` (centres unmarked) [Example 146] were, in that order, less than 10 nM and 453 nM.
`O=[N+]([O-])c1cc2oc(COP(=O)(N3CC3)N3CC3)cc2cc1Oc1cccc(C2CC2)c1` [Example 555]: the values for the IC50 in experiment [1] (H460 cells) and in experiment [2] were less than 10 nM and 1490 nM, respectively.
Regarding `O=[N+]([O-])c1ccc2c(c1Oc1ccc(F)c(-n3ncnn3)c1)CC[C@@H]2OP(=O)(N1CC1)N1CC1` [Example 441], the IC50 in experiment [1] (setting [3]) was less than 10 nM; in experiment [2], 158 nM.
On to `O=[N+]([O-])c1ccc2c(c1Oc1ccc(-c3ccc(F)cc3)cc1)CCC2OP(=O)(N1CC1)N1CC1` (centres unmarked) [Example 21], for which the IC50 is less than 10 nM in experiment [1] (setting [3]) and 1420 nM in experiment [2].
With `CC(C)Oc1cc(Oc2c([N+](=O)[O-])ccc3c2CCC3OP(=O)(N2CC2)N2CC2)ccc1F` (centres unmarked) [Example 486], the IC50 was less than 10 nM in experiment [1] (H460 cells) and 967 nM in experiment [2].
In the case of `O=[N+]([O-])c1cc2c(cc1Oc1ccc(-c3ccccc3)cc1)C(OP(=O)(N1CC1)N1CC1)CC2` (single isomer, unassigned) [Example 153], the figures for the half-inhibitory concentration (IC50) in experiment [1] (H460 cells) and in experiment [2] were less than 10 nM and 477 nM, respectively.
As for `COc1ccc(Oc2c([N+](=O)[O-])ccc3c2CC[C@@H]3OP(=O)(N2CC2)N2CC2)cc1-c1ncc(F)cn1` [Example 293, (S)-4-(3-(5-fluoropyrimidin-2-yl)-4-methoxyphenoxy)-5-nitro-2,3-dihydro-1H-inden-1-yl di(aziridin-1-yl)phosphinate], the results for the IC50 in experiment [1] (setting [3]) and in experiment [2] were less than 10 nM and 1050 nM, respectively.
As for `O=C1c2ccc(Oc3c([N+](=O)[O-])ccc4c3CCC4OP(=O)(N3CC3)N3CC3)cc2CN1C1CC1` (centres unmarked) [Example 57], the figures for the IC50 in experiment [1] (H460 cells) and in experiment [2] were less than 10 nM and 219 nM, respectively.
In the case of `O=[N+]([O-])c1ccc2c(c1Oc1ccc(F)c(-c3ccc(F)cc3)c1)CC[C@@H]2OP(=O)(N1CC1)N1CC1` [Example 307], the IC50 in experiment [1] (setting [4]) was less than 10 nM; in experiment [2], 2360 nM.
On to `CC1(C)CN(c2ccc(Oc3c([N+](=O)[O-])ccc4c3CCC4OP(=O)(N3CC3)N3CC3)cc2)C(=O)O1` (centres unmarked) [Example 426], for which the IC50 in experiment [1] (H460 cells) is less than 10 nM; in experiment [2], 638 nM.
`O=[N+]([O-])c1ccc2c(c1Oc1ccc(-c3ncc(F)cn3)c(F)c1)CC[C@H]2OP(=O)(N1CC1)N1CC1` [Example 269, (R)-4-(3-fluoro-4-(5-fluoropyrimidin-2-yl)phenoxy)-5-nitro-2,3-dihydro-1H-inden-1-yl di(aziridin-1-yl)phosphinate]: the IC50 in experiment [1] (setting [3]) was 10 to 50 nM; in experiment [2], 761 nM.
As for `CN(C)C(=O)c1cc(Oc2c([N+](=O)[O-])ccc3c2CC[C@@H]3OP(=O)(N2CC2)N2CC2)ccc1F` [Example 255], the IC50 in experiment [1] (H460 cells) was less than 10 nM; in experiment [2], 832 nM.
